The results in this text go back to patent publication US20240368120A1 (Terns Pharmaceuticals, Inc., priority 2023, published 2024).

Data set [1] in a line: Rat pharmacokinetics, oral dosing. In kind it is in vivo, Sprague-Dawley rats. The settings on record: male, Sprague-Dawley, oral dosing at 3 mg/kg, plasma; for half-life: read-out: Rat T1/2.
A further data set addresses T1, human GLP-1R receptor (Homo sapiens, UniProt P43220).
T1 construct: expressed in transfected cells
The data set can be described thus: GLP-1R low expression cell assay (cAMP TR-FRET, CHO-K1_hGLP-1Rlow_clone10 cells). It counts as cell-based. The settings on record: for EC50: cAMP TR-FRET, 30 min at 25° C.; for Emax: maximum activation relative to control GLP-1 peptide agonist. The method, boiled down: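 CHO-K1 cells stably expressing low surface human GLP-1R (clone10), 1,000 cells/well, exposed to 10-point 3-fold compound dilutions for 30 min at 25 °C. cAMP measured by TR-FRET (Eu-cAMP tracer/ULight-anti-cAMP, 15 min). EC50 from Hill fit of duplicate percent activation relative to a parallel GLP-1 control agonist.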

T1 sequence (P43220 24-463): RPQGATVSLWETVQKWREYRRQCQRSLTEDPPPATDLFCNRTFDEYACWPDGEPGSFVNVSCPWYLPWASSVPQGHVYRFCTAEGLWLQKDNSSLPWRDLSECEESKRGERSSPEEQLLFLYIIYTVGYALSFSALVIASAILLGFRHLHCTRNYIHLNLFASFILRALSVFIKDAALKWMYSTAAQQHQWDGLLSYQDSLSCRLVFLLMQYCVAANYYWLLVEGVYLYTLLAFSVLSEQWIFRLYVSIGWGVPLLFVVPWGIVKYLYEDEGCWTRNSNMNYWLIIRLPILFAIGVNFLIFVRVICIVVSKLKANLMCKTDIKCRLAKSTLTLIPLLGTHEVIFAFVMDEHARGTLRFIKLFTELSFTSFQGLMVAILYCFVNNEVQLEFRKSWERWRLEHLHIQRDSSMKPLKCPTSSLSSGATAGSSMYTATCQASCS

On to `Cn1c(CN2CCC(c3cccc(OCc4ccc(Cl)cc4F)n3)CC2)nc2c(OCF)cc(C(=O)O)cc21` [Compound 225, 2-((4-(6-((4-Chloro-2-fluorobenzyl)oxy)pyridin-2-yl)piperidin-1-yl)methyl)-4-(fluoromethoxy)-1-methyl-1H-benzo[d]imidazole-6-carboxylic acid], for which, in data set [1], the Cmax lay in the range of 2000 to 5000 ng/mL, the half-life was no less than 2.5 h and the bioavailability was greater than 85%. On human GLP-1R receptor, this compound had an EC50 of less than 0.01 µM and a maximal response (Emax) greater than 85%.
For the compound `Cn1c(CN2CCC(c3ccc(F)c(OCc4ccc(C#N)cc4F)n3)CC2)nc2c(OC(F)F)cc(C(=O)O)cc21` [Compound 137, 2-((4-(6-((4-Cyano-2-fluorobenzyl)oxy)-5-fluoropyridin-2-yl)piperidin-1-yl)methyl)-4-(difluoromethoxy)-1-methyl-1H-benzo[d]imidazole-6-carboxylic acid], in data set [1], the AUC was in the range of 2500 to 10000 ng·h/mL, the Cmax is greater than 5000 ng/mL, the half-life was 1.5 to 2.5 h and the bioavailability is greater than 85%. On human GLP-1R receptor, the EC50 lay within 0.01 to 0.1 µM and the Emax is greater than 85%.
